Results on 9 compounds are retold here after US9738641B2, “Bicyclic inhibitors” (Kalvista Pharmaceuticals Limited, priority 2013, dated 2017).

The conditions of data set [1]: in vivo; cited from earlier work.
The test system of data set [2] is retinal vascular permeability and retinal blood flow. The note with it: diabetic rats; cited from earlier work.
In data set [3] the target is Human plasma kallikrein (Homo sapiens (Human), UniProt P03952). Briefly: Determination of the IC50 for plasma kallikrein (fluorogenic substrate H-DPro-Phe-Arg-AFC). The note with it: 37° C., read-out: IC50 (human PKal). It counts as biochemical. As for the experimental part:
Determination of the IC50 for Plasma Kallikrein
Plasma kallikrein inhibitory activity in vitro was determined using standard published methods (see e.g. Johansen et al., Int. J. Tiss. Reac. 1986, 8, 185; Shori et al., Biochem. Pharmacol., 1992, 43, 1209; Stürzebecher et al., Biol. Chem. Hoppe-Seyler, 1992, 373, 1025). Human plasma kallikrein (Protogen) was incubated at 37° C. with the fluorogenic substrate H-DPro-Phe-Arg-AFC and various concentrations of the test compound. Residual enzyme activity (initial rate of reaction) was determined by measuring the change in optical absorbance at 410 nm and the IC50 value for the test compound was determined.

The target in data set [4] is Human KLK1 (Homo sapiens (Human), UniProt P06870). Briefly: Determination of the IC50 for KLK1 (fluorogenic substrate H-DVal-Leu-Arg-AFC). It counts as biochemical. Particulars: 37° C. As for the experimental part:
Determination of the IC50 for KLK1
KLK1 inhibitory activity in vitro was determined using standard published methods (see e.g. Johansen et al., Int. J. Tiss. Reac. 1986, 8, 185; Shori et al., Biochem. Pharmacol., 1992, 43, 1209; Stürzebecher et al., Biol. Chem. Hoppe-Seyler, 1992, 373, 1025). Human KLK1 (Callbiochem) was incubated at 37° C. with the fluorogenic substrate H-DVal-Leu-Arg-AFC and various concentrations of the test compound. Residual enzyme activity (initial rate of reaction) was determined by measuring the change in optical absorbance at 410 nm and the IC50 value for the test compound was determined.

Sequence of Human plasma kallikrein (P03952 391-638): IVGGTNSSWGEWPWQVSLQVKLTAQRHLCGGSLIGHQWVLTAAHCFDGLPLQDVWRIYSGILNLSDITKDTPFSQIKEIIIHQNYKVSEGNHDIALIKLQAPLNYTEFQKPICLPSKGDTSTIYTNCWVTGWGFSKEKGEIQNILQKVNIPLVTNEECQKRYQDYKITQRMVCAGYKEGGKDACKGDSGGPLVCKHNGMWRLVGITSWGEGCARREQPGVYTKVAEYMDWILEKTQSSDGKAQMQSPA
Sequence of Human plasma kallikrein (P03952 20-390 partner): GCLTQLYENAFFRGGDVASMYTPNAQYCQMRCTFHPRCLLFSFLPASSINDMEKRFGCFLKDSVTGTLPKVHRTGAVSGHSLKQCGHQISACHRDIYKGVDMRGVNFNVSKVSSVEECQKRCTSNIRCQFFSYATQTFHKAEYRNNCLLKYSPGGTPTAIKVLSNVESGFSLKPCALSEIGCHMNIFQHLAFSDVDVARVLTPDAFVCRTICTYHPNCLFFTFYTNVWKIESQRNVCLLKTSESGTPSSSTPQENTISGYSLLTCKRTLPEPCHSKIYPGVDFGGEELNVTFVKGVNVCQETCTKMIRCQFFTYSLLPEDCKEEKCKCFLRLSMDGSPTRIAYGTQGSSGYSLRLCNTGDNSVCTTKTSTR
Sequence of Human KLK1 (P06870 25-262): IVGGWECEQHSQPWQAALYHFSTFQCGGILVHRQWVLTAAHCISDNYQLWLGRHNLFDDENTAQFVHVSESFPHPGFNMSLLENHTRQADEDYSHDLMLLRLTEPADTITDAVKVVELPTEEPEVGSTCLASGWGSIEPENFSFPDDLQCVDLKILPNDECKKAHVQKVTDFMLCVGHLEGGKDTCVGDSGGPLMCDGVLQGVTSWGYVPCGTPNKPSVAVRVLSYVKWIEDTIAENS

For the compound `N=C(N)c1ccc(CNC(=O)c2cnn(Cc3ccccc3)c2)cc1` [ASP-440], the oral availability result in data set [1] was “poor oral availability”. Further, in data set [2], the “effect on retinal vascular permeability and retinal blood flow abnormalities” value was “ameliorated both retinal vascular permeability and retinal blood flow abnormalities”.
On to `O=c1ccccn1Cc1ccc(Cn2ccc3c(NCc4cnc5[nH]ccc5c4)nccc32)cc1` [Example 3, 1-(4-{4-[(1H-Pyrrolo[2,3-b]pyridin-5-ylmethyl)-amino]-pyrrolo[3,2-c]pyridin-1-ylmethyl}-benzyl)-1H-pyridin-2-one], for which the IC50 in data set [3] is 5.46 µM; in data set [4] it was 5.69 µM.
As for `c1ccc(-c2nc(Cn3ccc4c(NCc5cnc6[nH]ccc6c5)nccc43)cs2)cc1` [Example 4, [1-(2-Phenyl-thiazol-4-ylmethyl)-1H-pyrrolo[3,2-c]pyridin-4-yl]-(1H-pyrrolo[2,3-b]pyridin-5-ylmethyl)-amine], the results for the half-maximal inhibitory concentration (IC50) in data set [3] and in data set [4] were 5.32 µM and 10.3 µM, respectively.
Consider `NCc1ccc(CNc2nccc3c2ccn3CCCCc2ccccc2)cc1` [Example 5, (4-Aminomethyl-benzyl)-[1-(4-phenyl-butyl)-1H-pyrrolo[3,2-c]pyridin-4-yl]-amine], for which the IC50 in data set [3] stood at 29 µM; in data set [4] it was 38.6 µM.
Regarding `Cc1cc(CN)ccc1CNc1nccc2c1ccn2Cc1csc(-c2ccccc2)n1` [Example 6, (4-Aminomethyl-2-methyl-benzyl)-[1-(2-phenyl-thiazol-4-ylmethyl)-1H-pyrrolo[3,2-c]pyridin-4-yl]-amine], the IC50 in data set [3] stood at 8.59 µM; in data set [4], 8.14 µM.
For `NCc1ccc(CNc2nccc3c2ccn3Cc2ccc(Cn3ccccc3=O)cc2)cc1` [Example 7, 1-{4-[4-(4-Aminomethyl-benzylamino)-pyrrolo[3,2-c]pyridin-1-ylmethyl]-benzyl}-1H-pyridin-2-one], in that order: 5.37 µM and 29.9 µM.
As for `Cc1cc(CN)ccc1CNc1nccc2c1ccn2Cc1ccc(Cn2ccccc2=O)cc1` [Example 8, 1-{4-[4-(4-Aminomethyl-2-methyl-benzylamino)-pyrrolo[3,2-c]pyridin-1-ylmethyl]-benzyl}-1H-pyridin-2-one], the IC50 in data set [3] was 6.3 µM; in data set [4], 5.3 µM.
For `NCc1ccc(CNc2nccc3c2ccn3Cc2csc(-c3ccccc3)n2)cc1` [Example 9, (4-Aminomethyl-benzyl)-[1-(2-phenyl-thiazol-4-ylmethyl)-1H-pyrrolo[3,2-c]pyridin-4-yl]-amine], in that order: 8.1 µM and 8.26 µM.
For `Cc1cnn(Cc2ccc(CN3CCOc4c(NCc5ccc6c(N)nccc6c5)ncnc43)cc2)c1` [Example 10, (1-Amino-isoquinolin-6-ylmethyl)-{8-[4-(4-methyl-pyrazol-1-ylmethyl)-benzyl]-7,8-dihydro-6H-pyrimido[5,4-b][1,4]oxazin-4-yl}-amine], in that order: 20.5 µM and 5.04 µM.

The IC50 is the point on the concentration scale where inhibition reaches its midpoint.
